Data taken from publication PMC7316994, “In Vitro Pharmacological Profile of a New Small Molecule Bradykinin B2 Receptor Antagonist” (Frontiers in Pharmacology, 2020).

Assays:
[1] = target: T1, Dopamine D2S (Homo sapiens, UniProt P14416); test: radioligand binding (Table S2); conditions: [3H] 7-OH-DPAT, Human recombinant HEK-293 cells
T1 construct: host or cells: HEK-293 cells

[2] = target: T2, Serotonin 5-HT1A (Homo sapiens, UniProt P08908); test: radioligand binding (Table S2); conditions: [3H] 8-OH-DPAT, Human recombinant HEK-293 cells
T2 construct: host or cells: HEK-293 cells
T2 sequence (P08908 whole entry): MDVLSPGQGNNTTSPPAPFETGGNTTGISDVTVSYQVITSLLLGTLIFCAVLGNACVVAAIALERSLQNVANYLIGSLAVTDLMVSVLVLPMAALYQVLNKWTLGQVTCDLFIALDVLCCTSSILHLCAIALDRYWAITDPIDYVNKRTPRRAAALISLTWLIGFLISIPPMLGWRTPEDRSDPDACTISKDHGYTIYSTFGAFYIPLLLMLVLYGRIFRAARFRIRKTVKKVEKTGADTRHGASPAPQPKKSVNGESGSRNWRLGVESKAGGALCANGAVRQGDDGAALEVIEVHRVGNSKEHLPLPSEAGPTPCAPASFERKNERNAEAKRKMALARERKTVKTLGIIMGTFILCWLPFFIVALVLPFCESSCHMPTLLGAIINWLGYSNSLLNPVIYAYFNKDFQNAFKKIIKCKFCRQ

[3] = target: T3, Benzodiazepine BZD (peripheral) (Rattus norvegicus, UniProt P16257); test: radioligand binding (Table S2)
T3 construct: tissue Eurofins; host or cells: rat heart

[4] = target: T4, Serotonin 5-HT3 (Homo sapiens, UniProt P46098); test: radioligand binding (Table S2); conditions: [3H] BRL 43694, Human recombinant CHO cells
T4 construct: host or cells: CHO cells
T4 sequence (P46098 24-478): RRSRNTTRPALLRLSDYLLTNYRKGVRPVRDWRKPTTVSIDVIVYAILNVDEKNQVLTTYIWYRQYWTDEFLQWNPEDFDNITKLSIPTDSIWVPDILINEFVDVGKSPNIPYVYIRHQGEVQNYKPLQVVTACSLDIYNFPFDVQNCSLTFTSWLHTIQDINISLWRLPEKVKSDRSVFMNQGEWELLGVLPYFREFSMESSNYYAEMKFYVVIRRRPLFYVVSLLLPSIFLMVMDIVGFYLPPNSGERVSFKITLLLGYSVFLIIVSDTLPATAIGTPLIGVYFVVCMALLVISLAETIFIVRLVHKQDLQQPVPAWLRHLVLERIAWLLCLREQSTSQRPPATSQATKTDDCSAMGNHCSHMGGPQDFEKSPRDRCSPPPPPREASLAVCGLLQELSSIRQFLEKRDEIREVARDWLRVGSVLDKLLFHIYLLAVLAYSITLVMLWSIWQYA

[5] = target: T5, Urotensin UT (Homo sapiens, UniProt Q9UKP6); test: radioligand binding (Table S2); conditions: [125I] Urotensin-II, Human recombinant CHO cells
T5 construct: host or cells: CHO cells
T5 sequence (Q9UKP6 whole entry): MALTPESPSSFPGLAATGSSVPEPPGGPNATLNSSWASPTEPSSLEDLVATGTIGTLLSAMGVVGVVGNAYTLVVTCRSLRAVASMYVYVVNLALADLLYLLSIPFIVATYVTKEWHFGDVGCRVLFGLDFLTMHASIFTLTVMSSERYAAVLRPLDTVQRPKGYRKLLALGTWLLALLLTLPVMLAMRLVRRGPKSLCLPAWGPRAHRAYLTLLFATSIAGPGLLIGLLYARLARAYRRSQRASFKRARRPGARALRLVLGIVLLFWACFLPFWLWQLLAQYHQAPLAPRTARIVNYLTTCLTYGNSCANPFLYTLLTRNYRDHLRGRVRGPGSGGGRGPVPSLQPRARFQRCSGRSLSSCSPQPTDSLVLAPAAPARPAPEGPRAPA

[6] = target: T6, Serotonin 5-HT2A (Homo sapiens, UniProt P28223); test: radioligand binding (Table S2); conditions: [125I] (±)DOI, Human recombinant HEK-293 cells
T6 construct: host or cells: HEK-293 cells
T6 sequence (P28223 whole entry): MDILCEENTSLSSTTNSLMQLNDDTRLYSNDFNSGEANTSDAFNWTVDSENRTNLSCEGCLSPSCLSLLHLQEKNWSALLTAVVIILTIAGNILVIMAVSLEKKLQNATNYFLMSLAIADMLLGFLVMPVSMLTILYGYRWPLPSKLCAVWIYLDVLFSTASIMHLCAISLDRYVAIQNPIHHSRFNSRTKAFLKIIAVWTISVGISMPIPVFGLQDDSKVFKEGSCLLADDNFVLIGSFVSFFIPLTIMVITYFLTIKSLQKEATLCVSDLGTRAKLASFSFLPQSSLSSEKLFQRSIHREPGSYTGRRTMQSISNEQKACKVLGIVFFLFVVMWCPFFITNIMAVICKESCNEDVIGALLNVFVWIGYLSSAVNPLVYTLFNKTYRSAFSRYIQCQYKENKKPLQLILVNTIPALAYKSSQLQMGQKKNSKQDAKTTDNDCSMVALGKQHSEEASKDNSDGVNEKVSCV

[7] = target: T7, Prostanoid EP4 (Homo sapiens, UniProt P35408); test: radioligand binding (Table S2); conditions: [3H] Prostaglandin E2, Human recombinant Chem-1 cells
T7 construct: host or cells: Chem-1 cells

[8] = in vitro; conditions: male, Wistar, rat, microsomes, pH 7.4
[9] = target: T8, cynomolgus monkey B2 receptor (Macaca fascicularis, UniProt A0A7N9CWN6); test: cell-based
T8 sequence (A0A7N9CWN6 1-391): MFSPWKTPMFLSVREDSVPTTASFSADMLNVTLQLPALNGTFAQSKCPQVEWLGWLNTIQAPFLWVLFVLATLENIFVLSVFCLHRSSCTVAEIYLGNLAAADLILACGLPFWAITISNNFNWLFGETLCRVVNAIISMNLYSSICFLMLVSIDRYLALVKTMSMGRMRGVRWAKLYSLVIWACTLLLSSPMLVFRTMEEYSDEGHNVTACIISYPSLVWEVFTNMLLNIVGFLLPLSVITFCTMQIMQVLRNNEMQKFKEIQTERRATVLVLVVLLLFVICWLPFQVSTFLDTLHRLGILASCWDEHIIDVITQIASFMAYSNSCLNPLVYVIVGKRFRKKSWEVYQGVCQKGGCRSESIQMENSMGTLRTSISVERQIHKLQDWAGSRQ

[10] = target: PDE3A (Homo sapiens, UniProt Q14432); test: enzyme assay (Table S2); format: biochemical; conditions: [3H]cAMP + cAMP (0.5 µM), Scintillation counting
Chain of PDE3A (Q14432 whole entry): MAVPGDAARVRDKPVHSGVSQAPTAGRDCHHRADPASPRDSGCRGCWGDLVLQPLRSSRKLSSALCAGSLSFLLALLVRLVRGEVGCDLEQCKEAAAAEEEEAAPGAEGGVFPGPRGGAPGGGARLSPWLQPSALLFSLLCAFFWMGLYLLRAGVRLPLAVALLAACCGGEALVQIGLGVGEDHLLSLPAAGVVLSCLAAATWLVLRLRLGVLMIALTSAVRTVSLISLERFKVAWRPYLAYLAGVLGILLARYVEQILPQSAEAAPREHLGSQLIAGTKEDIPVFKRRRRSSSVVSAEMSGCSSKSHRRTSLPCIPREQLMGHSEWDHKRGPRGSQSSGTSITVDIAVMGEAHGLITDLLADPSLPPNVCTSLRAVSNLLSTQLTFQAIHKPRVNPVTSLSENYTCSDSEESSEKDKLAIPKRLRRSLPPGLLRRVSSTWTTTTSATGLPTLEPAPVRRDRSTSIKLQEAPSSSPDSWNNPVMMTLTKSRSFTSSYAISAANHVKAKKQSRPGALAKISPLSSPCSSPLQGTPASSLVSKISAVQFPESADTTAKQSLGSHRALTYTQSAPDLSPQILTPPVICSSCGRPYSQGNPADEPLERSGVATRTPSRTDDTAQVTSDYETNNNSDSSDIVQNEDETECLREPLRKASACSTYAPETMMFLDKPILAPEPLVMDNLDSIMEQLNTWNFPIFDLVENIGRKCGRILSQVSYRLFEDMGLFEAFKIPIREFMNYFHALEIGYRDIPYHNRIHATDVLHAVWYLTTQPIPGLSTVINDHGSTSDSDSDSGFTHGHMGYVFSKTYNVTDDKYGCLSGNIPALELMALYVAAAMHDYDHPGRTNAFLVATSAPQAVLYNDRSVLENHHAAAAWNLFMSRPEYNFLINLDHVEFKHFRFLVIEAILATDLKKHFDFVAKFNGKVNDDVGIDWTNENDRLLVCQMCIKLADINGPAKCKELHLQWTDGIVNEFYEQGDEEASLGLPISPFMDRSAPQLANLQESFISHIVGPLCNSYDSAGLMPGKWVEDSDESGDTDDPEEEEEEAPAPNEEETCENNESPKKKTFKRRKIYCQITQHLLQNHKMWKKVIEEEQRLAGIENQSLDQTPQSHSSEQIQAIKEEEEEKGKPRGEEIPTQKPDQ

[11] = target: T9, Orexin OX1 (Homo sapiens, UniProt O43613); test: radioligand binding (Table S2); conditions: [125I] Orexin A, Human recombinant CHO cells
T9 construct: host or cells: CHO cells

[12] = target: T10, Serotonin 5-HT7 (Homo sapiens, UniProt P34969); test: radioligand binding (Table S2); conditions: [3H] LSD, Human recombinant CHO cells
T10 construct: host or cells: CHO cells

[13] = target: Chemokine CXCR4 (Homo sapiens, UniProt P61073); test: radioligand binding (Table S2); conditions: [125I] SDF-1α, Human recombinant Chem-1 cells
Chain of Chemokine CXCR4 (P61073 whole entry): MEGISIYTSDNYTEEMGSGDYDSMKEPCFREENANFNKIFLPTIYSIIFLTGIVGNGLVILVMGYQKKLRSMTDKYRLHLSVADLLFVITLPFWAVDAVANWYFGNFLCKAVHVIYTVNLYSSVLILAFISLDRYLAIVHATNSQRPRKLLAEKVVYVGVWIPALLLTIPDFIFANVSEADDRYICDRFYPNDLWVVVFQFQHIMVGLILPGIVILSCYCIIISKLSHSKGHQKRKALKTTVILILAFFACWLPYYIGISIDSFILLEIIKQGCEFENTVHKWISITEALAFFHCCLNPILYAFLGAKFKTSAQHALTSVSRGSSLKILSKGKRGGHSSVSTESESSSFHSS

[14] = target: T11, human myc-B2 receptor (Homo sapiens, UniProt P30411); test: c-Fos immunoblot, HEK 293a cells stably expressing myc-B2 receptor; format: cell-based; conditions: BK 10 nM
T11 construct: expressed in transfected cells
T11 sequence (P30411 1-391): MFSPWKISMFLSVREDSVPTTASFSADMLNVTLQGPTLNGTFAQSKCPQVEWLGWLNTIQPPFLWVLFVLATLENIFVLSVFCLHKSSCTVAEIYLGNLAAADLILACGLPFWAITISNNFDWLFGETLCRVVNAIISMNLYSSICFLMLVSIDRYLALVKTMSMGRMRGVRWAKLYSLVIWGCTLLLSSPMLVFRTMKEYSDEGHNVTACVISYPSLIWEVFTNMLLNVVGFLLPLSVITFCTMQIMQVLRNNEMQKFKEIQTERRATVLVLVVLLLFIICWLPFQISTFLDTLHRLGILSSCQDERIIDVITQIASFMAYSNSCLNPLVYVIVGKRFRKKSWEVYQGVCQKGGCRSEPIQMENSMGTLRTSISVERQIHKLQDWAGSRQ
From the text: Supplementary Methods: Immunoblots for c-Fos signaling
The construction of myc-tagged B2 receptor expression vector containing the human receptor sequence has been recently reported, as well as the derivation of HEK293a cell lines that stably express the construction (Charest-Morin et al., 2015). Immunoblotting experiments, conducted as described (Koumbadinga et al., 2010), were used to study the effect of selected antagonists on BK-induced signaling. Briefly, HEK 293a cells stably expressing the human myc-B2 receptor were stimulated with BK agonists for 60 min at 37°C, with or without a pretreatment with the antagonist (applied 15 min before BK). Total cell extracts were immunoblotted to detect c-Fos expression using the K-25 rabbit polyclonal antibodies (Santa Cruz Biotechnology, Dallas, TX; dilution 1:50,000). In these experiments, β-actin was used as a loading control and was detected using the monoclonal anti-β-actin antibody, clone AC-15 (Sigma-Aldrich; dilution 1:50,000).

[15] = target: T12, Vasopressin V2 (Homo sapiens, UniProt P30518); test: functional assay, cAMP HTRF, CHO cells (Table S2); format: cell-based; conditions: read-out: % inhibition of reference agonist response @ 10 µM (antagonist effect), AVP (0.03 nM)
T12 construct: expressed in transfected cells; host or cells: CHO cells
T12 sequence (P30518 whole entry): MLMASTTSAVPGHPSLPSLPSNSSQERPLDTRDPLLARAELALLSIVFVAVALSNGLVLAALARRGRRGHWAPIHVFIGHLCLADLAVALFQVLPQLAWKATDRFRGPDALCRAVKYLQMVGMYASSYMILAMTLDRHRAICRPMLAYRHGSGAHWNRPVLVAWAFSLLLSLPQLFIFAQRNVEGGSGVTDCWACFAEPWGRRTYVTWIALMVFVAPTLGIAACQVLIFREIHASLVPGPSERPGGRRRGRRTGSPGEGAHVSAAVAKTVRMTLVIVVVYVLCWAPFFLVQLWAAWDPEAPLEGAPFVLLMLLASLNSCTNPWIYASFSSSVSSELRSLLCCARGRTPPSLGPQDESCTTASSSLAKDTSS

[16] = target: T13, Serotonin 5-HT4 e (Homo sapiens, UniProt Q13639); test: radioligand binding (Table S2); conditions: [3H] GR 113808, Human recombinant CHO cells
T13 construct: host or cells: CHO cells
T13 sequence (Q13639 1-378 isoform Q13639-5): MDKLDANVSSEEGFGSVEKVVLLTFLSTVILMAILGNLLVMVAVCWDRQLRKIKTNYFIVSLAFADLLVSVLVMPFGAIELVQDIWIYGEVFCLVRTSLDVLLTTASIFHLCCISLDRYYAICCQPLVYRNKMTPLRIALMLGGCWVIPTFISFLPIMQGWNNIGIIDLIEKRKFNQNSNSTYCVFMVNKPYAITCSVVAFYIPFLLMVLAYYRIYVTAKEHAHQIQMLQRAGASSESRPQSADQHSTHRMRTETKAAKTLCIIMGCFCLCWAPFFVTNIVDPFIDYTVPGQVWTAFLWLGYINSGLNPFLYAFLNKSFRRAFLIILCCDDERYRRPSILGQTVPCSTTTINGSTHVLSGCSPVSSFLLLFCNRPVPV

[17] = target: Muscarinic M2 (Homo sapiens, UniProt P08172); test: radioligand binding (Table S2); conditions: read-out: % Inhibition @ 10 µM
Chain of Muscarinic M2 (P08172 whole entry): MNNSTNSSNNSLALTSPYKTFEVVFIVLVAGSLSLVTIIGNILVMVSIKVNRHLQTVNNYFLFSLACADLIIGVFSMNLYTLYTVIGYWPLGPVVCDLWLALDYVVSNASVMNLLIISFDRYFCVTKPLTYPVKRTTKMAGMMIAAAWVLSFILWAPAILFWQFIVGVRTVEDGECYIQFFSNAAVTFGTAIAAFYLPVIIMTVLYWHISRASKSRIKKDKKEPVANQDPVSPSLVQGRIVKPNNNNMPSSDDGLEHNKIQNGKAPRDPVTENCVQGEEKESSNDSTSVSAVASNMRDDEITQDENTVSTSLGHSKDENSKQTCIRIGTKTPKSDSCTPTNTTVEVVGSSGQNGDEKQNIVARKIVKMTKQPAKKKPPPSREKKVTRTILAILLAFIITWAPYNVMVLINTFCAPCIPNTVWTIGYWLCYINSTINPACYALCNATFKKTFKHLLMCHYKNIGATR

[18] = target: T14, Serotonin 5-HT2B (Homo sapiens, UniProt P41595); test: radioligand binding (Table S2); conditions: [125I] (±)DOI, Human recombinant CHO cells
T14 construct: host or cells: CHO cells

[19] = target: Adenosine A2B (Homo sapiens, UniProt P29275); test: radioligand binding (Table S2); conditions: read-out: % Inhibition @ 10 µM
[20] = target: T15, Monoamino-oxidase MAO-A (Rattus norvegicus, UniProt P21396); test: radioligand binding (Table S2); conditions: [3H] Ro 41-1049, Rat cerebral cortex
T15 construct: Rat cerebral cortex; from tissue; host or cells: rat cerebral cortex
T15 sequence (P21396 whole entry): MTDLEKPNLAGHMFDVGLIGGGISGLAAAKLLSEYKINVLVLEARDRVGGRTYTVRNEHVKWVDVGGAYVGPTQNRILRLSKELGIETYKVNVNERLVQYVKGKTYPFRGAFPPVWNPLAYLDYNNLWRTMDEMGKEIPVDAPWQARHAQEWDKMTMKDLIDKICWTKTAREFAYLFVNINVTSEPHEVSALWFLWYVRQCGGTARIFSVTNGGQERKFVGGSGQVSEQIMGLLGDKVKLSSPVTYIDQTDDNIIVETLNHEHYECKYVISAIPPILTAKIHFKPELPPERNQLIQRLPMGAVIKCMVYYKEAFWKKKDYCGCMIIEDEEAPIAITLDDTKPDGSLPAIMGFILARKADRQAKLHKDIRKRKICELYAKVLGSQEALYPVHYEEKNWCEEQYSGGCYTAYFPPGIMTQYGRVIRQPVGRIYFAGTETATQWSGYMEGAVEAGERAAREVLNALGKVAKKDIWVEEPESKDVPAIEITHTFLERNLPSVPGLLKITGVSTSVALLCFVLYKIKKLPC

Compound `Cc1cc(-c2ncnn2C)c2cccc(OCc3c(Cl)cc(F)cc3[C@H](C)NC(=O)COC(F)F)c2n1` [Compound 3, (S)-N-(1-(3-chloro-5-fluoro-2-((2-methyl-4-(1-methyl-1H-1,2,4-triazol-5-yl)quinolin-8-yloxy)methyl)phenyl)ethyl)-2-(difluoromethoxy)acetamide] has an inhibition at 10 µM [1] of -2.7%, an inhibition at 10 µM [2] of -4% and an inhibition at 10 µM [3] of 42.3%. It also gave an inhibition at 10 µM [4] of 2.1%, an inhibition at 10 µM [5] of 13.5% and an inhibition at 10 µM [6] of -3.8%. The inhibition at 10 µM [7] was 3%, the microsomal CLint at 1 µM [8] was 27.9 µL/min/mg and the IC50 [9] was 6.25 nM. For the same compound, the Kb [9] was 1.36 nM, the inhibition at 10 µM [10] was 15.9% and the inhibition at 10 µM [11] was 7.1%. The inhibition at 10 µM [12] was 3.3%, the inhibition at 10 µM [13] was 10% and the “antagonist concentration that significantly reduced the c-Fos response to BK” value ([14]; 60 min) was “significant effect at equimolar concentration”. For the same compound, the “effect on BK-induced c-Fos accumulation” value ([14]; co-treatment between 10 nM and 1 μM) was “inhibited this response in a concentration-dependent manner”, the inhibition at 10 µM [15] was -15.1% and the inhibition at 10 µM [16] was -0.9%. It also gave an inhibition at 10 µM [17] of -12.4%, an inhibition at 10 µM [18] of -8.9% and an inhibition at 10 µM [19] of 3.6%. The inhibition at 10 µM [20] was -1.3%.
